Activity calls are given as the source filed them.
Tests used:
[1] = Stability in PBS; assay type: physicochemical; details: buffer
[2] = target: COX1 (Prostaglandin G/H synthase 1) (Homo sapiens, UniProt P23219); experiment: Inhibition of COX1 in human platelet rich plasma in assessed as inhibition of ADP-induced platelet aggregation at 10 uM incubated for 5 mins by turbidimetry based Born's method relative to control
Rattus norvegicus [3] = experiment: Antihyperalgesic activity in Sprague-Dawley rat model of Complete freund's adjuvant-induced arthritis assessed as pain threshold of ipsilateral paw at 30 mg/kg, po starting from day 14 after CFA injection and measured at 15 mins by paw pressure test (reference value: 40.1 +/- 0.7 g); assay type: functional
Rattus norvegicus [4] = experiment: Antihyperalgesic activity in Sprague-Dawley rat model of Complete freund's adjuvant-induced arthritis assessed as pain threshold of ipsilateral paw at 30 mg/kg, po starting from day 14 after CFA injection and measured at 30 mins by paw pressure test (reference value: 40.1 +/- 0.7 g); assay type: functional
Rattus norvegicus [5] = experiment: Antihyperalgesic activity in Sprague-Dawley rat model of Complete freund's adjuvant-induced arthritis assessed as pain threshold of ipsilateral paw at 30 mg/kg, po starting from day 14 after CFA injection and measured at 45 mins by paw pressure test (reference value: 40.1 +/- 0.7 g); assay type: functional
Rattus norvegicus [6] = experiment: (§1) Antihyperalgesic activity in Sprague-Dawley rat model of Complete freund's adjuvant-induced arthritis assessed as increase in pain threshold of ipsilateral paw at 3 to 30 mg/kg, po starting from day 14 after CFA injection and measured at 0 to 60 mins by paw pressure test; assay type: functional, organism-based
Rattus norvegicus [7] = experiment: Antihyperalgesic activity in Sprague-Dawley rat model of Complete freund's adjuvant-induced arthritis assessed as effect on pain threshold of ipsilateral paw at 30 mg/kg, po starting from day 14 after CFA injection and measured at 60 mins by paw pressure test; assay type: functional, organism-based
Rattus norvegicus [8] = experiment: Antihyperalgesic activity in Sprague-Dawley rat model of Complete freund's adjuvant-induced arthritis assessed as increase in pain threshold of ipsilateral paw at 10 mg/kg, po starting from day 14 after CFA injection and measured at 15 mins by paw pressure test; assay type: functional, organism-based
Rattus norvegicus [9] = experiment: Antihyperalgesic activity in Sprague-Dawley rat model of Complete freund's adjuvant-induced arthritis assessed as increase in pain threshold of ipsilateral paw at 10 mg/kg, po starting from day 14 after CFA injection and measured at 30 mins by paw pressure test; assay type: functional
Rattus norvegicus [10] = experiment: Antihyperalgesic activity in Sprague-Dawley rat model of Complete freund's adjuvant-induced arthritis assessed as increase in pain threshold of ipsilateral paw at 10 mg/kg, po starting from day 14 after CFA injection and measured at 45 mins by paw pressure test; assay type: functional, organism-based
Rattus norvegicus [11] = experiment: Antihyperalgesic activity in Sprague-Dawley rat model of Complete freund's adjuvant-induced arthritis assessed as pain threshold of ipsilateral paw at 3 mg/kg, po starting from day 14 after CFA injection and measured at 30 mins by paw pressure test (reference value: 40.1 +/- 0.7 g); assay type: functional
Rattus norvegicus [12] = experiment: as §1, with “reduction” for “increase”, “difference between weight burdened on contralateral and” for “pain threshold of”, “incapacitance” for “by paw pressure”; assay type: functional, organism-based
Rattus norvegicus [13] = experiment: (§2) Antihyperalgesic activity in Sprague-Dawley rat model of Complete freund's adjuvant-induced arthritis assessed as reduction in difference between weight burdened on contralateral and ipsilateral paw at 30 mg/kg, po starting from day 14 after CFA injection and measured at 15 to 45 mins incapacitance test; assay type: functional, organism-based
Rattus norvegicus [14] = experiment: as §2, with “10” for “30”, “30” for “45”; assay type: functional, organism-based
Rattus norvegicus [15] = experiment: Antihyperalgesic activity in Sprague-Dawley rat model of Complete freund's adjuvant-induced arthritis assessed as reduction in difference between weight burdened on contralateral and ipsilateral paw at 3 mg/kg, po starting from day 14 after CFA injection and measured at 30 mins incapacitance test; assay type: functional, organism-based
Rattus norvegicus [16] = experiment: Antihyperalgesic activity in Sprague-Dawley rat model of Complete freund's adjuvant-induced arthritis assessed as reduction in difference between weight burdened on contralateral and ipsilateral paw at 10 mg/kg, po starting from day 14 after CFA injection and measured at 30 mins incapacitance test; assay type: functional, organism-based
[17] = Half life in human plasma by LC-MS/MS analysis; assay type: ADME, cell-free
[18] = Half life in Sprague-Dawley rat plasma by LC-MS/MS analysis; assay type: ADME, cell-free
[19] = target: Carbonic anhydrase 4 (Homo sapiens) (UniProt P22748)
Sequence of Carbonic anhydrase 4 (Homo sapiens) (P22748 whole entry): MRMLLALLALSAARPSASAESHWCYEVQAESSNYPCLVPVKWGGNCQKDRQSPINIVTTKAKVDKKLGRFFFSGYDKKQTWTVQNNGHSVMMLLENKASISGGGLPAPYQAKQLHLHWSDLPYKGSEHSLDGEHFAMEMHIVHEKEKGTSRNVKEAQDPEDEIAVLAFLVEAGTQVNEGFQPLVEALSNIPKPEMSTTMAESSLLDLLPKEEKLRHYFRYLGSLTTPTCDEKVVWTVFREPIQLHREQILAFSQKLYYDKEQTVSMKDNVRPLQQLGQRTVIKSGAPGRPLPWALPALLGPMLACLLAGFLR
Description: Inhibition of human CA4 pre-incubated for 6 hrs by stopped- flow CO2 hydrase assay method based Cheng-Prusoff equation analysis

[20] = target: Carbonic anhydrase 7 (Homo sapiens) (UniProt P43166)
Sequence of Carbonic anhydrase 7 (Homo sapiens) (P43166 whole entry): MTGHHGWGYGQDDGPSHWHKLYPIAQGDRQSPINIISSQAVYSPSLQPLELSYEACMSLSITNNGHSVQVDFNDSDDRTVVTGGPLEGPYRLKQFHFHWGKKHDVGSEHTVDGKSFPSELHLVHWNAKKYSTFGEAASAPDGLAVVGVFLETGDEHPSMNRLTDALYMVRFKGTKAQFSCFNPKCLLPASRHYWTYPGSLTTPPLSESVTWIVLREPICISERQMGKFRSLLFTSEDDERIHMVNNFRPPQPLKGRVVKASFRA
Description: Inhibition of human CA7 pre-incubated for 6 hrs by stopped- flow CO2 hydrase assay method based Cheng-Prusoff equation analysis

[21] = target: Carbonic anhydrase 1 (Homo sapiens) (UniProt P00915)
Sequence of Carbonic anhydrase 1 (Homo sapiens) (P00915 2-261 limits assumed): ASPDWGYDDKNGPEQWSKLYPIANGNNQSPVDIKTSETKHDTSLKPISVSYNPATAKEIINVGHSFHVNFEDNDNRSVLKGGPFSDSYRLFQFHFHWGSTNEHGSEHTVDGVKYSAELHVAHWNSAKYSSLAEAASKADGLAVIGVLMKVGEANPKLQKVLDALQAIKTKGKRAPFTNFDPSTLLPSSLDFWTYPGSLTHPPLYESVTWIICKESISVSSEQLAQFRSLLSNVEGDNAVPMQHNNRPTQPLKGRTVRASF
Description: Inhibition of human CA1 pre-incubated for 6 hrs by stopped- flow CO2 hydrase assay method based Cheng-Prusoff equation analysis

[22] = target: Carbonic anhydrase 2 (Homo sapiens) (UniProt P00918)
Description: Inhibition of human CA2 pre-incubated for 6 hrs by stopped- flow CO2 hydrase assay method based Cheng-Prusoff equation analysis

[23] = target: Carbonic anhydrase 9 (Homo sapiens) (UniProt Q16790)
Description: Inhibition of human CA9 pre-incubated for 6 hrs by stopped- flow CO2 hydrase assay method based Cheng-Prusoff equation analysis

[24] = target: Carbonic anhydrase 12 (Homo sapiens) (UniProt O43570)
Sequence of Carbonic anhydrase 12 (Homo sapiens) (O43570 whole entry): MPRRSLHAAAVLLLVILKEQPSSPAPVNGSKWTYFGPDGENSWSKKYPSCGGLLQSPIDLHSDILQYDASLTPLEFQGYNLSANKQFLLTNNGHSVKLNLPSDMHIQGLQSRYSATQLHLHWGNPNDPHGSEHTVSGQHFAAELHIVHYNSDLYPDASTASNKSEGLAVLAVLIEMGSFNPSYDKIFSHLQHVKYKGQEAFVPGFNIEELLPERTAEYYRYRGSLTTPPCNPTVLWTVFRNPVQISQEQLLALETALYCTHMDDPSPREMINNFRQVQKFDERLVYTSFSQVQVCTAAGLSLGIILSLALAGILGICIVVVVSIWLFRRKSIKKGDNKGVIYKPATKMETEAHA
Description: Inhibition of human CA12 pre-incubated for 6 hrs by stopped- flow CO2 hydrase assay method based Cheng-Prusoff equation analysis

Rattus norvegicus [25] = experiment: Antihyperalgesic activity in Sprague-Dawley rat model of Complete freund's adjuvant-induced arthritis assessed as increase in pain threshold of ipsilateral paw at 30 mg/kg, po starting from day 14 after CFA injection and measured at 0 to 60 mins by paw pressure test; assay type: functional, organism-based
[26] = Solubility of the compound; assay type: physicochemical
Rattus norvegicus [27] = experiment: Antihyperalgesic activity in Sprague-Dawley rat model of Complete freund's adjuvant-induced arthritis assessed as reduction in difference between weight burdened on contralateral and ipsilateral paw at 30 mg/kg, po starting from day 14 after CFA injection and measured at 30 mins incapacitance test; assay type: functional, organism-based
Rattus norvegicus [28] = experiment: Antihyperalgesic activity in Sprague-Dawley rat model of Complete freund's adjuvant-induced arthritis assessed as pain threshold of ipsilateral paw at 13.4 mg/kg, po starting from day 14 after CFA injection and measured at 15 mins by paw pressure test (reference value: 40.1 +/- 0.7 g); assay type: functional
Rattus norvegicus [29] = experiment: Antihyperalgesic activity in Sprague-Dawley rat model of Complete freund's adjuvant-induced arthritis assessed as pain threshold of ipsilateral paw at 13.4 mg/kg, po starting from day 14 after CFA injection and measured at 30 mins by paw pressure test (reference value: 40.1 +/- 0.7 g); assay type: functional
Rattus norvegicus [30] = experiment: Antihyperalgesic activity in Sprague-Dawley rat model of Complete freund's adjuvant-induced arthritis assessed as reduction in difference between weight burdened on contralateral and ipsilateral paw at 13.4 mg/kg, po starting from day 14 after CFA injection and measured at 15 mins incapacitance test; assay type: functional, organism-based

Sequence of COX1 (Prostaglandin G/H synthase 1) (P23219 whole entry): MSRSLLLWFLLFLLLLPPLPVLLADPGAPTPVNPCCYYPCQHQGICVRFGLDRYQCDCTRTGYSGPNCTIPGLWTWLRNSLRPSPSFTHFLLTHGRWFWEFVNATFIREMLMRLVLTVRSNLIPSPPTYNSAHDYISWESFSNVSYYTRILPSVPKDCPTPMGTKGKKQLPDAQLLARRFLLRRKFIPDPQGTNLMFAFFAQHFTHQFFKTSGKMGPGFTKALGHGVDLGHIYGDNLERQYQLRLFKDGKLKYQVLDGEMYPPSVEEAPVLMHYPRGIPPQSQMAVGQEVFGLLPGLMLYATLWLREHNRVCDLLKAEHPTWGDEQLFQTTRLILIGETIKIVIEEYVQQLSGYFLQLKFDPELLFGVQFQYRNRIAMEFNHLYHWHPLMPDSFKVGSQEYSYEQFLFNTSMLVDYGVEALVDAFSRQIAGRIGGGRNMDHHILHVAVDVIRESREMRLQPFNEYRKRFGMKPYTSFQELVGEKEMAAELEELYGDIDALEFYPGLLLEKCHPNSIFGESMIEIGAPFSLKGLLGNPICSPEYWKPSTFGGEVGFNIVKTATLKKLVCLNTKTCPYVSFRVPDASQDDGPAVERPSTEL

Compound: CC(C(=O)OCCOc1ccc2oc(=O)ccc2c1)c1cccc(C(=O)c2ccccc2)c1 (racemic)
- Stability [1]: Stable
- inhibition at 5 min, 10 µM [2]: 5 to 30%
- Activity (Rattus norvegicus [3]): <=53.8 g
- Activity (Rattus norvegicus [4]): <=64.4 g
- Activity (Rattus norvegicus [5]): <=50 g
- Activity (Rattus norvegicus [6]): Dose-dependent effect
- Activity (Rattus norvegicus [7]): inactive
- Activity (Rattus norvegicus [8]): Active
- Activity (Rattus norvegicus [9]): 100%
- Activity (Rattus norvegicus [10]): inactive
- Activity (Rattus norvegicus [11]): 49.4 g
- Activity (Rattus norvegicus [12]): Dose-dependent effect
- Activity (Rattus norvegicus [13]): Active
- Activity (Rattus norvegicus [14]): Active
- Activity (Rattus norvegicus [15]): Active
- Activity (Rattus norvegicus [16]): Active
- half-life [17]: 31 min
- half-life [18]: 4.7 min
- Ki [19]: 2.3 nM
- Ki [20]: > 10000 nM
- Ki [21]: > 10000 nM
- Ki [22]: > 10000 nM
- Ki [23]: 36.9 nM
- Ki [24]: 83.1 nM

Compound: CC(C(=O)OCCOc1ccc2ccc(=O)oc2c1)c1cccc(C(=O)c2ccccc2)c1 (racemic)
- Stability [1]: Stable
- inhibition at 5 min, 10 µM [2]: 5 to 30%
- Activity (Rattus norvegicus [25]): inactive
- solubility [26]: Insoluble
- Activity (Rattus norvegicus [27]): Active
- half-life [17]: 12 min
- half-life [18]: 2.1 min
- Ki [19]: 6.7 nM
- Ki [20]: > 10000 nM
- Ki [21]: > 10000 nM
- Ki [22]: > 10000 nM
- Ki [23]: 35.4 nM
- Ki [24]: 55.4 nM

Compound: O=c1ccc2cc(OCCO)ccc2o1
- Activity (Rattus norvegicus [28]): 51.7 g
- Activity (Rattus norvegicus [29]): 18.4 g
- Activity (Rattus norvegicus [30]): Active
